Source: ChEMBL document CHEMBL5052835, “Slc26a3 inhibitors and use thereof” (2021)
pIC50: −log10 of the molar value. Calls of active or inactive are those of the source. No cut-off for these calls is given here.

Columns and labels:
Mus musculus [1] = test: In vivo inhibition of slc26a3 in loperamide-induced constipation model of cystic fibrosis mouse at 5 mg/kg, po assessed as reduction in stool weight; type: functional, organism-based
Colon = test: Inhibition of fluid absorption in distal colonic loop isolated from female CD-1 mouse at 10 uM assessed as effect on reduction in loop weight/length ratio in presence of 10 microM tenapanor; type: functional, tissue-based
Mus musculus [2] = test: In vivo inhibition of slc26a3 in loperamide-induced constipation model of female CD-1 mouse at 5 mg/kg, po co-administered with tenapanor assessed as reduction in pellet number; type: functional, organism-based
Mus musculus [3] = test: In vivo inhibition of slc26a3 in loperamide-induced constipation model of female CD-1 mouse at 5 mg/kg, po assessed as reduction in pellet number; type: functional, organism-based
Mus musculus [4] = organism: Mus musculus; test: Inhibition of mouse Slc26a9-mediated Cl-/ I- exchange at 10 uM measured by cell-based fluorescence assay
Mus musculus [5] = test: Inhibition of oxalate absorption in high oxalate and low calcium diet-induced oxalate nephropathy model of mouse at 5 mg/kg, po assessed as reduction in kidney damage; type: functional, organism-based
Mus musculus [6] = test: In vivo inhibition of slc26a3 in loperamide-induced constipation model of female CD-1 mouse at 5 mg/kg, po co-administered with tenapanor assessed as reduction in stool weight; type: functional, organism-based
Mus musculus [7] = test: In vivo inhibition of slc26a3 in loperamide-induced constipation model of cystic fibrosis mouse at 5 mg/kg, po assessed as reduction in stool water content; type: functional, organism-based
[8] = target: T1, Anoctamin-1 (Mus musculus) (UniProt Q8BHY3); test: Inhibition of mouse TMEM16A at 10 uM measured by cell-based fluorescence assay
T1 sequence (whole entry): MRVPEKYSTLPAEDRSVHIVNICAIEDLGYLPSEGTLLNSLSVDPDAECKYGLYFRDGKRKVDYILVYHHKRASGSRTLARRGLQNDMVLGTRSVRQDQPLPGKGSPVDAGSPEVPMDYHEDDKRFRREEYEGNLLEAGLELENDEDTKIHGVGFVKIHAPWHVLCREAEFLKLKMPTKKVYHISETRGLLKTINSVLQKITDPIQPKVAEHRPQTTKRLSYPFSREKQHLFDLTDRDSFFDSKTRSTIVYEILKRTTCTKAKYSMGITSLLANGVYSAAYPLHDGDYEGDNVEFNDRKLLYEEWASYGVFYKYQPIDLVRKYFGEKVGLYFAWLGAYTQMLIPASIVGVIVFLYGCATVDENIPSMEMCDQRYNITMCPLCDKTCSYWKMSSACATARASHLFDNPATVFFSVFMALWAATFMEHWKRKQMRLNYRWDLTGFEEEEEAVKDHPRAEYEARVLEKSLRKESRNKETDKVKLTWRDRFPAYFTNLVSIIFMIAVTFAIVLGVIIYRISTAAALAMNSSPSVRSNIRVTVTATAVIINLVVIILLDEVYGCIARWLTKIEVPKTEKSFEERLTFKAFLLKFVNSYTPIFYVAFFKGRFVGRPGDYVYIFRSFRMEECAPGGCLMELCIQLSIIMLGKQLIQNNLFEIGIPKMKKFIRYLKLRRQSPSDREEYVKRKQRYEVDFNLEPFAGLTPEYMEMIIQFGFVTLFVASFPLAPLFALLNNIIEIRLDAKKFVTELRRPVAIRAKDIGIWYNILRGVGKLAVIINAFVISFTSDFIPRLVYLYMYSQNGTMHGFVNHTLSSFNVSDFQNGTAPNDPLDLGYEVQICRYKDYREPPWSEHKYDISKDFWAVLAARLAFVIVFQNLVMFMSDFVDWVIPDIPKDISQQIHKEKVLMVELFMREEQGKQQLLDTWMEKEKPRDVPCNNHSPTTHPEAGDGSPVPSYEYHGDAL

Jejunum [9] = test: Inhibition of fluid absorption in mid-jejunal loops isolated from female CD-1 mouse at 10 uM assessed as effect on reduction in loop weight/length ratio; type: functional, tissue-based
[10] = Inhibition of Slc26a3-mediated HCO3- influx/Cl efflux in rat FRT cells measured by fluorescence assay; type: cell-based
Mus musculus [11] = test: Inhibition of oxalate absorption in sodium oxalate-induced acute hyperoxaluria mouse model at 5 mg/kg, po; type: functional, organism-based
[12] = target: T2, Solute carrier family 26 member 6 (Mus musculus) (UniProt Q8CIW6); test: Inhibition of mouse Slc26a6-mediated Cl-/ I- exchange at 10 uM measured by cell-based fluorescence assay
T2 sequence (whole entry): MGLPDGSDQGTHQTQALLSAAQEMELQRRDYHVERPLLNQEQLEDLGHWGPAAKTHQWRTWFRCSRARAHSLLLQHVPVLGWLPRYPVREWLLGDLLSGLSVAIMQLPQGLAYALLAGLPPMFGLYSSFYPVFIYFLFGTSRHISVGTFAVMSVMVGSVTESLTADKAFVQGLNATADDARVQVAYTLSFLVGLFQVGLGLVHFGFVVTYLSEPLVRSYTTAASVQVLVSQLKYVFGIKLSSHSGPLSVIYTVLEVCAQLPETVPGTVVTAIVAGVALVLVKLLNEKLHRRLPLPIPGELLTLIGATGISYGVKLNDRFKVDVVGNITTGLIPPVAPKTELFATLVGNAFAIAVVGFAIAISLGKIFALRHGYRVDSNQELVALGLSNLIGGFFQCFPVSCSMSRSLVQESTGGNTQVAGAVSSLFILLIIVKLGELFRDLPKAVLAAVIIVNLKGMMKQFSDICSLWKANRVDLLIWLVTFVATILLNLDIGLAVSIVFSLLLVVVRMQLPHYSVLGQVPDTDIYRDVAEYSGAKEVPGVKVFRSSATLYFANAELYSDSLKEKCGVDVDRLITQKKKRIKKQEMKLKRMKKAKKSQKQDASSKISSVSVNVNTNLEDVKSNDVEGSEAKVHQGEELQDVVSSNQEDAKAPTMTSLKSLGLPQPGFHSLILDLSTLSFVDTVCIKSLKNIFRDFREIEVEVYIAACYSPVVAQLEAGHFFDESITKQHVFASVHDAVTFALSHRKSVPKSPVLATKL

Mus musculus [13] = test: In vivo inhibition of slc26a3 in loperamide-induced constipation model of female CD-1 mouse at 5 mg/kg, po co-administered with tenapanor assessed as reduction in stool water content; type: functional, organism-based
Mus musculus [14] = test: In vivo inhibition of slc26a3 in loperamide-induced constipation model of female CD-1 mouse at 5 mg/kg, po assessed as reduction in stool weight; type: functional, organism-based
Jejunum [15] = test: Inhibition of fluid absorption in mid-jejunal loops isolated from female CD-1 mouse at 10 uM assessed as effect on reduction in loop weight/length ratio in presence of 10 microM tenapanor; type: functional, tissue-based
Mus musculus [16] = test: Inhibition of oxalate absorption in high oxalate and low calcium diet-induced oxalate nephropathy model of mouse at 5 mg/kg, po assessed as reduction in urine sediment; type: functional, organism-based
Mus musculus [17] = test: Inhibition of oxalate absorption in high oxalate and low calcium diet-induced oxalate nephropathy model of mouse at 5 mg/kg, po assessed as reduction in crystal deposition in kidney; type: functional, organism-based
HBE = test: Inhibition of ENaC in human HBE cells at 10 uM pretreated with amiloride assessed as effect on short-circuit current responses; type: cell-based

## Cc1c(CC(=O)O)c(=O)oc2c(C)c(OCc3cccc(Br)c3)ccc12
Mus musculus [1]
  inhibition: Active
Colon
  inhibition: Active
Mus musculus [2]
  inhibition: Active
Mus musculus [3]
  inhibition: Active
Mus musculus [4]
  inhibition: inactive
Mus musculus [5]
  inhibition: Active
Mus musculus [6]
  inhibition: Active
Mus musculus [7]
  inhibition: Active
[8]
  inhibition: inactive
Jejunum [9]
  inhibition: Active
[10]
  pIC50: 7.00
Mus musculus [11]
  inhibition: Active
[12]
  inhibition: inactive
Mus musculus [13]
  inhibition: Active
Mus musculus [14]
  inhibition: Active
Jejunum [15]
  inhibition: Active
Mus musculus [16]
  inhibition: Active
Mus musculus [17]
  inhibition: Active
HBE
  inhibition: inactive
